Values of other authors as cited in patent publication US12115139B2, “Treatment methods and processes for an infected nail” (priority 2018, dated 2024).
“And” between values parts separate entries of the source, which are not always exact repeats. Equal values may be shown once. Where a name gives a salt, the structure may show the parent alone.

Test system: nail infections
Conditions: for side effects compared with Lamisil: oral treatment

## C[C@@H](n1cnc2cc(Cl)ccc2c1=O)[C@](O)(Cn1cncn1)c1ccc(F)cc1F [Albaconazole]
  side effects compared with Lamisil: fewer side effects

## CCC(C)(C)c1ccc(CC(C)CN2C[C@@H](C)O[C@@H](C)C2)cc1 (stereo partly shown) [Amorolfine, amorolfine]
topical, severe nail infections involving the nail bed
  effectiveness against severe nail infections: not effective

## Cc1cc(C2CCCCC2)n(O)c(=O)c1 [Ciclopirox, ciclopirox]
topical, 8% strength
  cure rate: about 8.5%

## CN(C/C=C/C#CC(C)(C)C)Cc1cccc2ccccc12 [Lamisil, terbinafine hydrochloride]
Oral treatment of nail infections
  mycological cure rate: 46%

## CC[C@@H]([C@H](C)O)n1ncn(-c2ccc(N3CCN(c4ccc(OC[C@@H]5CO[C@@](Cn6cncn6)(c6ccc(F)cc6F)C5)cc4)CC3)cc2)c1=O [Posaconazole]
  side effects compared with Lamisil: fewer side effects

## OB1OCc2cc(F)ccc21 [Tavaborole, tavaborole]
topical, share of the 600 patients in the study
  complete cure: 6%

## C=C1CCN([C@H](C)[C@](O)(Cn2cncn2)c2ccc(F)cc2F)CC1 [efinaconazole]
topical, only mild infections not involving the nail bed
  cure rates: 17.8% and 15.2%
